The values that follow come from paper PMC10146846, “Studying the Mechanism of Interaction of Doxofylline with Human Lysozyme: A Biophysical and In Silico Approach” (Molecules, 2023).

Assay [1] concerns the target T1, Human lysozyme (Homo sapiens, UniProt P61626).
T1 construct: gene LYZ
T1 sequence (P61626 19-148): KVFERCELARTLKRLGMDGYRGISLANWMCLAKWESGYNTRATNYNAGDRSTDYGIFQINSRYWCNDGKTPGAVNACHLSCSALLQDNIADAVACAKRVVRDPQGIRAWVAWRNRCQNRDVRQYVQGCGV
Put plainly: UV-vis absorption titration, double-reciprocal plot. The class given is binding. An excerpt:
UV-vis absorption titration, double-reciprocal plot on Human lysozyme

Assay [2] concerns the target T1, Human lysozyme. Nature of the assay: intrinsic fluorescence quenching, excitation […] nm. The following applies: double-log; sodium phosphate pH 7.4, lysozyme 10 µM, doxofylline 0–60 µM. It is filed as binding.

The compound `Cn1c(=O)c2c(ncn2CC2OCCO2)n(C)c1=O` [doxofylline] yielded a Kd on Human lysozyme [1] of 5.18 µM. In addition, the Kb on Human lysozyme [2] was 22900 M⁻¹.

In general, Kd refers to the constant that tells how readily two partners part at equilibrium.
